Source: article PMC12977544, “Phenotypic high-throughput screening identifies modulators of gut microbial choline metabolism” (mBio, 2026)

Columns and labels:
[1] = system: panel of commensal bacterial strains; assay: MIC against panel of nine gut commensal bacteria; conditions: read-out: MICs against gut commensal panel
[2] = system: germ-free C57BL/6 mice colonized with defined community incl. E. coli MS 200-1; assay: Serum TMAO in gnotobiotic mice after inhibitor treatment; assay type: in vivo, Mus musculus C57BL/6
Method: One milliliter of culture from each of the six individually grown strains was added to create this mixed culture. In a biosafety cabinet, a 300 mg/mL stock of sterile inhibitor in filter-sterilized DMSO was prepared. After this preparation, a working solution of 3 mg/mL of the inhibitor stock in sterile 1% hydroxyethyl cellulose/1% polysorbate 80 was prepared within 4 days of gavaging the mice and stored at room temperature. A low dose of the inhibitor was also prepared, using a working solution of 0.3 mg/mL of the inhibitor stock in sterile 1% hydroxyethyl cellulose/1% polysorbate 80. The vehicle was prepared in the same way with DMSO without inhibitor. […] Two weeks after colonization, mice were administrated by gavage with 3 mg/kg of the inhibitor or vehicle between 6 and 8 a.m. once a day for three consecutive days. After a 10-day washout period, mice were orally administered 30 mg/kg of the inhibitor once a day (same time as above) for three consecutive days, and blood was collected 24 h after the last gavage. A fecal sample was collected before the first gavage. At sacrifice, tissues collected were blood, cecal contents, a fecal pellet, proximal colon, distal small intestine, liver, and kidney. Mice were anesthetized with isoflurane and underwent cardiac puncture for a terminal blood draw, followed by cervical dislocation. Tissues were snap-frozen in liquid nitrogen. Blood was spun down at 8,000 × g for 8 min at room temperature; the resulting serum layer was removed and snap-frozen. All snap-frozen tissues were stored at -80°C until needed. One volume of plasma and 4 volumes of ice-cold extraction solution (HPLC-grade methanol with 2.5 μM d9-TMAO internal standard) were combined and spun at 21,100 × g for 3 min at 4°C. One volume of the resulting supernatant was then mixed with 1 volume of HPLC-grade water. […] was used for peak quantification, and internal standards were utilized as a comparison to calculate plasma concentrations. Statistical significance was calculated using an unpaired t-test.

[3] = Quantification of inhibitor 45 in serum and cecal contents of gnotobiotic mice (LC–MS/MS); assay type: in vivo, Mus musculus C57BL/6; conditions: 24 h after inhibitor gavage
Method: Female C57BL/6 germ-free mice (n = 8 per inhibitor group), 10–12 weeks of age in an isolator, were colonized with 200 µL of mix containing the five bacterial species mentioned above at ~10^8 bacterial cells/mL. Mice were fed a 1% choline diet (Envigo) ad libitum. Two weeks after colonization, mice were administrated by gavage with 3 mg/kg of the inhibitor or vehicle between 6 and 8 a.m. once a day for three consecutive days. After a 10-day washout period, mice were orally administered 30 mg/kg of the inhibitor once a day (same time as above) for three consecutive days, and blood was collected 24 h after the last gavage.
A fecal sample was collected before the first gavage. At sacrifice, tissues collected were blood, cecal contents, a fecal pellet, proximal colon, distal small intestine, liver, and kidney. Mice were anesthetized with isoflurane and underwent cardiac puncture for a terminal blood draw, followed by cervical dislocation. Tissues were snap-frozen in liquid nitrogen. Blood was spun down at 8,000 × g for 8 min at room temperature; the resulting serum layer was removed and snap-frozen. All snap-frozen tissues were stored at −80°C until needed.
A standard curve of inhibitor 45 spiked in commercial mouse serum (Sigma) was prepared. To 50 µL of serum sample, 450 µL of a mixture 75% acetonitrile, 25% methanol, 1% formic acid was added to precipitate proteins. […]

## Cc1ccc(-c2cc(C(=O)NCCCCCN3CCCCCC3)c(C)[nH]2)cc1C [Compound 45]
[1]
  MIC: > 200 µM
[2]; gnotobiotic mice, 30 mg/kg oral gavage daily for 3 days, 1% choline diet, 24 h after last dose, P = 0.054
  Serum TMAO level relative to vehicle treatment: about 60 % of vehicle treatment
[2]; gnotobiotic mice, 30 mg/kg, n = 8, P = 0.054
  Decrease of serum TMAO levels: ~ 40%
[2]; in vivo, mouse model not given
  Decrease of TMAO levels compared to vehicle treatment: approximately 40%
[3]
  Concentration in wet cecal mass: 463 pmol/µg
[3]; female, C57BL/6, mouse, serum, oral, 30 mg/kg, limit of detection 1 µM
  concentration at 24 h: < 1000 nM
